Experimental data published in US6355620B1, “C-2 modified erythromycin derivatives” (Abbott Laboratories, priority 1999, dated 2002).

Key:
Experiment in all cases: In vitro antibacterial activity, agar dilution MIC
Assay type in all cases: cell-based
Candida albicans CCH 442 = conditions: code TT, BHI agar, 35-37° C., 20 to 24 hours, unit assumed
Protocol: (§1) Representative compounds of the present invention were assayed in vitro for antibacterial activity as follows: Twelve petri dishes containing successive aqueous dilutions of the test compound mixed with 10 mL of sterilized Brain Heart Infusion (BHI) agar (Difco 0418-01-5) were prepared. Each plate was inoculated with 1:100 (or 1:10 for slow-growing strains, such as Micrococcus and Streptococcus) dilutions of up to 32 different microorganisms, using a Steers replicator block. The inoculated plates were incubated at 35-37° C. for 20 to 24 hours. In addition, a control plate, using BHI agar containing no test compound, was prepared and incubated at the beginning and end of each test.
(§2) An additional plate containing a compound having known susceptibility patterns for the organisms being tested and belonging to the same antibiotic class as the test compound was also prepared and incubated as a further control, as well as to provide test-to-test comparability.
(§3) After incubation, each plate was visually inspected. The minimum inhibitory concentration (MIC) was defined as the lowest concentration of drug yielding no growth, a slight haze, or sparsely isolated colonies on the inoculum spot as compared to the growth control.

[1] = test system: Enterococcusfaecium ATCC X043; conditions: code II, BHI agar, 35-37° C., 20 to 24 hours, unit assumed
Protocol: as §1, §2, §3

Escherichiacoli DC-2 = conditions: code SS, BHI agar, 35-37° C., 20 to 24 hours, unit assumed
Protocol: as §1, §2, §3

Escherichiacoli JUHL = conditions: code QQ, BHI agar, 35-37° C., 20 to 24 hours, unit assumed
Protocol: as §1, §2, §3

Escherichiacoli SS = conditions: code RR, BHI agar, 35-37° C., 20 to 24 hours, unit assumed
Protocol: as §1, §2, §3

[2] = test system: Haemophilislnfluenzae DILL AMP R; conditions: code WW, BHI agar, 35-37° C., 20 to 24 hours, unit assumed
Protocol: as §1, §2, §3

[3] = test system: Micrococcusluteus ATCC 4698; conditions: code PP, BHI agar, 35-37° C., 20 to 24 hours, unit assumed
Protocol: as §1, §2, §3

[4] = test system: Micrococcusluteus ATCC 9341; conditions: code OO, BHI agar, 35-37° C., 20 to 24 hours, unit assumed
Protocol: as §1, §2, §3

[5] = test system: Mycobacterium smegmatis ATCC 114; conditions: code UU, BHI agar, 35-37° C., 20 to 24 hours, unit assumed
Protocol: as §1, §2, §3

[6] = test system: Nocardia Asteroides ATCC 99700; conditions: code VV, BHI agar, 35-37° C., 20 to 24 hours, unit assumed
Protocol: as §1, §2, §3

[7] = test system: Staphylococcus aureus 1775; conditions: code GG, BHI agar, 35-37° C., 20 to 24 hours, unit assumed
Protocol: as §1, §2, §3

[8] = test system: Staphylococcus aureus A-5177; conditions: code BB, BHI agar, 35-37° C., 20 to 24 hours, unit assumed
Protocol: as §1, §2, §3

[9] = test system: Staphylococcus aureus A-5278; conditions: code CC, BHI agar, 35-37° C., 20 to 24 hours, unit assumed
Protocol: as §1, §2, §3

[10] = test system: Staphylococcus aureus ATCC 6538P; conditions: code AA, BHI agar, 35-37° C., 20 to 24 hours, unit assumed
Protocol: as §1, §2, §3

[11] = test system: Staphylococcus aureus CMX 553; conditions: code FF, BHI agar, 35-37° C., 20 to 24 hours, unit assumed
Protocol: as §1, §2, §3

[12] = test system: Staphylococcus aureus CMX 642A; conditions: code DD, BHI agar, 35-37° C., 20 to 24 hours, unit assumed
Protocol: as §1, §2, §3

[13] = test system: Staphylococcus aureus NCTC 10649M; conditions: code EE, BHI agar, 35-37° C., 20 to 24 hours, unit assumed
Protocol: as §1, §2, §3

[14] = test system: Staphylococcus epidermidis 3519; conditions: code HH, BHI agar, 35-37° C., 20 to 24 hours, unit assumed
Protocol: as §1, §2, §3

[15] = test system: Streptococcus Pneumonia 5649; conditions: code ZZA, BHI agar, 35-37° C., 20 to 24 hours, unit assumed
Protocol: as §1, §2, §3

[16] = test system: Streptococcus Pneumonia 5979; conditions: code ZZ, BHI agar, 35-37° C., 20 to 24 hours, unit assumed
Protocol: as §1, §2, §3

[17] = test system: Streptococcus Pneumonia ATCC 6303; conditions: code XX, BHI agar, 35-37° C., 20 to 24 hours, unit assumed
Protocol: as §1, §2, §3

[18] = test system: Streptococcus Pneumonia GYR 1171; conditions: code YY, BHI agar, 35-37° C., 20 to 24 hours, unit assumed
Protocol: as §1, §2, §3

[19] = test system: Streptococcus agalactiae CMX 508; conditions: code KK, BHI agar, 35-37° C., 20 to 24 hours, unit assumed
Protocol: as §1, §2, §3

[20] = test system: Streptococcus bovis A-5169; conditions: code JJ, BHI agar, 35-37° C., 20 to 24 hours, unit assumed
Protocol: as §1, §2, §3

[21] = test system: Streptococcus pyogenes 930; conditions: code MM, BHI agar, 35-37° C., 20 to 24 hours, unit assumed
Protocol: as §1, §2, §3

[22] = test system: Streptococcus pyogenes EES61; conditions: code LL, BHI agar, 35-37° C., 20 to 24 hours, unit assumed
Protocol: as §1, §2, §3

[23] = test system: Streptococcus pyogenes PIU 2548; conditions: code NN, BHI agar, 35-37° C., 20 to 24 hours, unit assumed
Protocol: as §1, §2, §3

## CCC1OC(=O)C(C)(O)C(=O)C(C)C(OC2OC(C)CC(N(C)C)C2O)C(C)(OCC=Cc2cnc3ccccc3c2)CC(C)C(=O)C(C)C2NC(=O)OC12C (centres unmarked) [Example 8, Compound of formula (II): R^a is —CH2CH═CH-(3-quinolinyl), R^b is H, Y and Z together are O, T is —NH—, R is —OH]
Candida albicans CCH 442
  Antibacterial Activity (MIC): > 100 µg/mL
[1]
  Antibacterial Activity (MIC): 0.2 µg/mL
Escherichiacoli DC-2
  Antibacterial Activity (MIC): > 100 µg/mL
Escherichiacoli JUHL
  Antibacterial Activity (MIC): > 100 µg/mL
Escherichiacoli SS
  Antibacterial Activity (MIC): 0.2 µg/mL
[2]
  Antibacterial Activity (MIC): 16 µg/mL
[3]
  Antibacterial Activity (MIC): 0.2 µg/mL
[4]
  Antibacterial Activity (MIC): 0.02 µg/mL
[5]
  Antibacterial Activity (MIC): 3.1 µg/mL
[6]
  Antibacterial Activity (MIC): 0.39 µg/mL
[7]
  Antibacterial Activity (MIC): > 100 µg/mL
[8]
  Antibacterial Activity (MIC): 0.39 µg/mL
[9]
  Antibacterial Activity (MIC): > 100 µg/mL
[10]
  Antibacterial Activity (MIC): 0.39 µg/mL
[11]
  Antibacterial Activity (MIC): 0.78 µg/mL
[12]
  Antibacterial Activity (MIC): 0.39 µg/mL
[13]
  Antibacterial Activity (MIC): 0.78 µg/mL
[14]
  Antibacterial Activity (MIC): 0.39 µg/mL
[15]
  Antibacterial Activity (MIC): 0.5 µg/mL
[16]
  Antibacterial Activity (MIC): 128 µg/mL
[17]
  Antibacterial Activity (MIC): 0.03 µg/mL
[18]
  Antibacterial Activity (MIC): 0.03 µg/mL
[19]
  Antibacterial Activity (MIC): 0.01 µg/mL
[20]
  Antibacterial Activity (MIC): 0.02 µg/mL
[21]
  Antibacterial Activity (MIC): 50 µg/mL
[22]
  Antibacterial Activity (MIC): 0.02 µg/mL
[23]
  Antibacterial Activity (MIC): 0.39 µg/mL

## CCC1OC(=O)C(C)(O)C(=O)C(C)C(OC2OC(C)CC(N(C)C)C2O)C(C)(OCC(O)CO)CC(C)C(=O)C(C)C2NC(=O)OC12C (centres unmarked) [Example 3, Compound of formula (II): R^a is —CH2CH(OH)CH2OH, R^b is H, Y and Z together are O, T is —NH—, R is —OH]
Candida albicans CCH 442
  Antibacterial Activity (MIC): > 100 µg/mL
[1]
  Antibacterial Activity (MIC): 100 µg/mL
Escherichiacoli DC-2
  Antibacterial Activity (MIC): > 100 µg/mL
Escherichiacoli JUHL
  Antibacterial Activity (MIC): > 100 µg/mL
Escherichiacoli SS
  Antibacterial Activity (MIC): 100 µg/mL
[2]
  Antibacterial Activity (MIC): > 128 µg/mL
[3]
  Antibacterial Activity (MIC): > 100 µg/mL
[4]
  Antibacterial Activity (MIC): 50 µg/mL
[5]
  Antibacterial Activity (MIC): > 100 µg/mL
[6]
  Antibacterial Activity (MIC): > 100 µg/mL
[7]
  Antibacterial Activity (MIC): > 100 µg/mL
[8]
  Antibacterial Activity (MIC): > 100 µg/mL
[9]
  Antibacterial Activity (MIC): > 100 µg/mL
[10]
  Antibacterial Activity (MIC): > 100 µg/mL
[11]
  Antibacterial Activity (MIC): > 100 µg/mL
[12]
  Antibacterial Activity (MIC): > 100 µg/mL
[13]
  Antibacterial Activity (MIC): > 100 µg/mL
[14]
  Antibacterial Activity (MIC): > 100 µg/mL
[15]
  Antibacterial Activity (MIC): > 128 µg/mL
[16]
  Antibacterial Activity (MIC): > 128 µg/mL
[17]
  Antibacterial Activity (MIC): 64 µg/mL
[18]
  Antibacterial Activity (MIC): 32 µg/mL
[19]
  Antibacterial Activity (MIC): 50 µg/mL
[20]
  Antibacterial Activity (MIC): 50 µg/mL
[21]
  Antibacterial Activity (MIC): > 100 µg/mL
[22]
  Antibacterial Activity (MIC): 100 µg/mL
[23]
  Antibacterial Activity (MIC): > 100 µg/mL

## CC[C@H]1OC(=O)[C@H](C)[C@@H](O[C@H]2C[C@@](C)(OC)[C@@H](O)[C@H](C)O2)[C@H](C)[C@@H](O[C@@H]2O[C@H](C)C[C@H](N(C)C)[C@H]2O)[C@](C)(O)C[C@@H](C)C(=O)[C@H](C)[C@@H](O)[C@]1(C)O [Ery. A standard, Erythromycin A, reference compound]
Candida albicans CCH 442
  Antibacterial Activity (MIC): > 100 µg/mL
[1]
  Antibacterial Activity (MIC): 0.05 µg/mL
Escherichiacoli DC-2
  Antibacterial Activity (MIC): > 100 µg/mL
Escherichiacoli JUHL
  Antibacterial Activity (MIC): > 100 µg/mL
Escherichiacoli SS
  Antibacterial Activity (MIC): 0.78 µg/mL
[2]
  Antibacterial Activity (MIC): 4 µg/mL
[3]
  Antibacterial Activity (MIC): 0.2 µg/mL
[4]
  Antibacterial Activity (MIC): 0.05 µg/mL
[5]
  Antibacterial Activity (MIC): 3.1 µg/mL
[6]
  Antibacterial Activity (MIC): 0.1 µg/mL
[7]
  Antibacterial Activity (MIC): > 100 µg/mL
[8]
  Antibacterial Activity (MIC): 3.1 µg/mL
[9]
  Antibacterial Activity (MIC): > 100 µg/mL
[10]
  Antibacterial Activity (MIC): 0.2 µg/mL
[11]
  Antibacterial Activity (MIC): 0.39 µg/mL
[12]
  Antibacterial Activity (MIC): 0.39 µg/mL
[13]
  Antibacterial Activity (MIC): 0.39 µg/mL
[14]
  Antibacterial Activity (MIC): 0.39 µg/mL
[15]
  Antibacterial Activity (MIC): 16 µg/mL
[17]
  Antibacterial Activity (MIC): 0.06 µg/mL
[18]
  Antibacterial Activity (MIC): 0.06 µg/mL
[19]
  Antibacterial Activity (MIC): 0.05 µg/mL
[20]
  Antibacterial Activity (MIC): 0.02 µg/mL
[21]
  Antibacterial Activity (MIC): > 100 µg/mL
[22]
  Antibacterial Activity (MIC): 0.05 µg/mL
[23]
  Antibacterial Activity (MIC): 6.2 µg/mL

## C=CCC1(C)C(=O)OC(CC)C2(C)OC(=O)NC2C(C)C(=O)C(C)CC(C)(OCC=Cc2cnc3ccccc3c2)C(OC2OC(C)CC(N(C)C)C2O)C(C)C1=O (centres unmarked) [Example 4, Compound of formula (II): R^a is —CH2CH═CH-(3-quinolinyl), R^b is H, Y and Z together are O, T is —NH—, R is —CH2CH═CH2]
Candida albicans CCH 442
  Antibacterial Activity (MIC): > 100 µg/mL
[1]
  Antibacterial Activity (MIC): 0.2 µg/mL
Escherichiacoli DC-2
  Antibacterial Activity (MIC): > 100 µg/mL
Escherichiacoli JUHL
  Antibacterial Activity (MIC): > 100 µg/mL
Escherichiacoli SS
  Antibacterial Activity (MIC): 3.1 µg/mL
[2]
  Antibacterial Activity (MIC): 16 µg/mL
[3]
  Antibacterial Activity (MIC): 0.78 µg/mL
[4]
  Antibacterial Activity (MIC): 0.1 µg/mL
[5]
  Antibacterial Activity (MIC): 3.1 µg/mL
[6]
  Antibacterial Activity (MIC): 0.1 µg/mL
[7]
  Antibacterial Activity (MIC): > 100 µg/mL
[8]
  Antibacterial Activity (MIC): 0.39 µg/mL
[9]
  Antibacterial Activity (MIC): > 100 µg/mL
[10]
  Antibacterial Activity (MIC): 0.78 µg/mL
[11]
  Antibacterial Activity (MIC): 0.39 µg/mL
[12]
  Antibacterial Activity (MIC): 0.78 µg/mL
[13]
  Antibacterial Activity (MIC): 0.78 µg/mL
[14]
  Antibacterial Activity (MIC): 0.39 µg/mL
[15]
  Antibacterial Activity (MIC): 2 µg/mL
[16]
  Antibacterial Activity (MIC): 64 µg/mL
[17]
  Antibacterial Activity (MIC): 0.25 µg/mL
[18]
  Antibacterial Activity (MIC): 0.25 µg/mL
[19]
  Antibacterial Activity (MIC): 0.2 µg/mL
[20]
  Antibacterial Activity (MIC): 0.05 µg/mL
[21]
  Antibacterial Activity (MIC): 12.5 µg/mL
[22]
  Antibacterial Activity (MIC): 0.1 µg/mL
[23]
  Antibacterial Activity (MIC): 0.78 µg/mL
